{"source": "patent US6184206A", "about": "“Integrin ligand dissociators” (The Burnham Institute, priority 1998, dated 2001)", "key": {"purified IIb-IIIa [1]": {"target": "T1, purified IIb-IIIa (Homo sapiens, UniProt P05106+P08514)", "T1 sequence (P08514 32-887 limits assumed)": "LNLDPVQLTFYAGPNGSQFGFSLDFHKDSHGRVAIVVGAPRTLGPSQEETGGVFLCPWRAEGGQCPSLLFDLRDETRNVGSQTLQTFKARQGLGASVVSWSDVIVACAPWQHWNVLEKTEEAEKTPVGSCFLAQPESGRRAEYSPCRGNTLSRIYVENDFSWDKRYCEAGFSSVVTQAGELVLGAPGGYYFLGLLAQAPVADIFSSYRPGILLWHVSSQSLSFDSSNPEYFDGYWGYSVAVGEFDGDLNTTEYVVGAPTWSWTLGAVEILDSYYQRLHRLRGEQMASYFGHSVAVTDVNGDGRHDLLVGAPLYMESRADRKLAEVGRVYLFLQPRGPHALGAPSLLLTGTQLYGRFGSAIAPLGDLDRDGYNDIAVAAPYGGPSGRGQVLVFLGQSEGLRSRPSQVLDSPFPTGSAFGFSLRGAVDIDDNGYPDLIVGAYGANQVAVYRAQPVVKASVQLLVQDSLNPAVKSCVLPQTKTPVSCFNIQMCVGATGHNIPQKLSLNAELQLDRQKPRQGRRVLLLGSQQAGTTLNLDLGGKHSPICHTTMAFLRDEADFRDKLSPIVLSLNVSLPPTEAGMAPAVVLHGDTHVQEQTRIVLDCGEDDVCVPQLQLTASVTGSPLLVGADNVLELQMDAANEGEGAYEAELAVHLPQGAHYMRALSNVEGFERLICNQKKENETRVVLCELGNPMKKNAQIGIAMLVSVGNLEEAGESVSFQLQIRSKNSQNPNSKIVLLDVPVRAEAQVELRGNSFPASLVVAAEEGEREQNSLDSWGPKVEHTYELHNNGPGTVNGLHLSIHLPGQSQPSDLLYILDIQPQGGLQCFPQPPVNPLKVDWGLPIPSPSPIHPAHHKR", "T1 sequence (P08514 891-1039 limits assumed)": "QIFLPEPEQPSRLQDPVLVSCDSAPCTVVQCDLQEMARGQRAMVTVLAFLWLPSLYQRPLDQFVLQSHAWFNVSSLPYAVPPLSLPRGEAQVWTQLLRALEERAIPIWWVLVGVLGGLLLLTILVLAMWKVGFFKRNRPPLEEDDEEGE", "T1 sequence (P05106 27-788)": "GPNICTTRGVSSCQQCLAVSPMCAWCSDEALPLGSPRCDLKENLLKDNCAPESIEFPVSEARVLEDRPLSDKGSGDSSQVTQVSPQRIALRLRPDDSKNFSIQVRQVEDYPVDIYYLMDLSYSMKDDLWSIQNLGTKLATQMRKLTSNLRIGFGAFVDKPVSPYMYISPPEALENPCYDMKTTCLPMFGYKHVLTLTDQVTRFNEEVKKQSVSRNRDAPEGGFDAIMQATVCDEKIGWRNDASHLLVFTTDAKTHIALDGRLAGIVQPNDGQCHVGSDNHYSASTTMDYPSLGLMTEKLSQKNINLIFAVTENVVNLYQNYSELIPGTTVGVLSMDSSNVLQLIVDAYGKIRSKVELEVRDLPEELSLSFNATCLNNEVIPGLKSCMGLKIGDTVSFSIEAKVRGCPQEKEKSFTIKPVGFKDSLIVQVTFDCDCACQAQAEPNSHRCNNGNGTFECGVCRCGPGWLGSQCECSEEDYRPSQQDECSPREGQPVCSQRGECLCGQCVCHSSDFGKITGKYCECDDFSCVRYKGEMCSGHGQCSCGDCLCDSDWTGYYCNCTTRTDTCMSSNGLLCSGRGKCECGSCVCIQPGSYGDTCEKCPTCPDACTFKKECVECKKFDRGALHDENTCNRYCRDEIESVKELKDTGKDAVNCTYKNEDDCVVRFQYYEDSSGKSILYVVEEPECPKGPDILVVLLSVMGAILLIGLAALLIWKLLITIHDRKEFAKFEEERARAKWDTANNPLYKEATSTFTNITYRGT", "experiment": "Competition binding to purified IIb-IIIa immobilized in microtiter plates", "conditions": "125I-Fab-9 challenged with unlabeled fibrinogen (FIG. 1B)", "procedure": "FIGS. 1A and 1B. Fibrinogen and Fab-9 bind distinct sites on IIb-IIIa. Studies were conducted with purified IIb-IIIa to determine whether Fab-9 (an RGD mimic) and fibrinogen bind to the same site on the integrin. IIb-IIIa was immobilized in microtiter plates and was allowed to bind either ^125 I-fibrinogen (FIG. 1A) or to ^125 I-Fab-9 (FIG. 1B). The binding of ^125 I-fibrinogen was challenged with unlabeled Fab-9. Similarly, the binding of ^125 I-Fab-9 was challenged with unlabeled fibrinogen.\nTo determine if fibrinogen and Fab-9 actually bind the same site on IIb-IIIa, a series of competition binding studies were carried out. The ability of the two ligands to compete for binding to IIB-IIIa was measured. Fab-9 blocked the binding of fibrinogen to IIB-IIIa (FIG. 1A). […] These sites are designated as Site I, which binds to Fab-9 and Site II, which interacts with fibrinogen (FIG. 2)."}, "purified IIb-IIIa [2]": {"target": "T1, purified IIb-IIIa", "experiment": "Surface Plasmon Resonance, real-time dissociation of ligands from IIb-IIIa", "format": "binding", "conditions": "fibrinogen immobilized on sensor chip, without 52012 (FIG. 4B)", "procedure": "FIGS. 4A and 4B. Measuring the ability of 52012 to dissociate fibrinogen and Fab-9 from IIb-IIIa in real time. Studies were performed with Surface Plasmon Resonance to examine the ability of 52012 to induce the dissociation of ligands from IIb-IIIa. Fab-9 (FIG. 4A) or fibrinogen (FIG. 4B) were immobilized on the sensor chip and then allowed to bind to purified IIb-IIIa. At a specific time, 52012 was introduced by injection into the flow cell.\nIn one embodiment, ILDs can be identified by the ability to increase the rate of dissociation between an integrin and its natural ligand, or a known mimic of its natural ligand, with Surface Plasmon Resonance (SPR), for example, using the BIACORE Surface Plasmon Resonance™ instrument. SPR is a technique that measures ligand association and dissociation in \"real time.\" To screen for an ILD using plasmon resonance, the following steps would be taken:\nIt is important to note that the configuration of the assay could take several different forms. For example, rather than immobilizing the integrin on the sensor chip, one could immobilize the ligand. In such case, the integrin would be allowed to bind the immobilized ligand prior to measuring dissociation rates.\nTo verify the effect of RGD-type ligands on the dissociation of fibrinogen from IIB-IIIa, dissociation rates were measured in real time using Surface Plasmon Resonance (SPR)."}}}
{"substance": "fibrinogen", "values": [{"measurement": "blocking of binding of 125I-Fab-9 to IIb-IIIa", "setting": "purified IIb-IIIa [1]", "result": "failed to block"}, {"measurement": "off-rate of fibrinogen from IIb-IIIa before 52012", "setting": "purified IIb-IIIa [2]", "result": "6e-05", "unit": "s⁻¹"}]}
